For four compounds, carcinogen call and TD50 results are on record in PubChem BioAssay AID1745844 (Carcinogenic Potency Database (CPDB), 2022).

For the data set, the system named is rodent lifetime carcinogenesis bioassay, tumor incidence TD50. Nature of the data set: carcinogenic potency in animals, long-term in vivo studies, CPDB compilation (AID 1745844).

Active and inactive are the calls of the source. The rule behind the calls is not given here.

For `CC1=C(C(=O)OC(C)C)C(c2cccc([N+](=O)[O-])c2)C(C(=O)OC2CN(C(c3ccccc3)c3ccccc3)C2)=C(N)N1` (stereo not given), the carcinogen call (mouse, strain B6C3F1, females, by gavage, site: any site (literature study), lesion: several types, types named in the paper, dosed 78 weeks, study length 78 weeks) was “negative (inactive)”; the carcinogen call (mouse, strain B6C3F1, females, by gavage, site: liver, lesion: hepatocellular adenoma, dosed 78 weeks, study length 78 weeks) was “negative (inactive)”; the carcinogen call (mouse, strain B6C3F1, females, by gavage, site: liver, lesion: hepatocellular carcinoma, dosed 78 weeks, study length 78 weeks) is “negative (inactive)”; the carcinogen call (mouse, strain B6C3F1, females, by gavage, site: lung, lesion: alveolar/bronchiolar carcinoma, dosed 78 weeks, study length 78 weeks) is “negative (inactive)”; the carcinogen call (mouse, strain B6C3F1, males, by gavage, site: liver, lesion: hepatocellular adenoma, dosed 78 weeks, study length 78 weeks) was “negative (inactive)”; the carcinogen call (mouse, strain B6C3F1, males, by gavage, site: liver, lesion: hepatocellular carcinoma, dosed 78 weeks, study length 78 weeks) is “negative (inactive)”. For the same compound, the carcinogen call is “negative (inactive)” (rat, strain F344/DuCrj, females, by gavage, site: any site (literature study), lesion: several types, types named in the paper, dosed 104 weeks, study length 104 weeks); “negative (inactive)” (rat, strain F344/DuCrj, females, by gavage, site: liver, lesion: hepatocellular adenoma, dosed 104 weeks, study length 104 weeks); “negative (inactive)” (rat, strain F344/DuCrj, females, by gavage, site: liver, lesion: hepatocellular carcinoma, dosed 104 weeks, study length 104 weeks); “negative (inactive)” (rat, strain F344/DuCrj, males, by gavage, site: any site (literature study), lesion: several types, types named in the paper, dosed 104 weeks, study length 104 weeks). In addition, the TD50 (mouse, strain B6C3F1, females, by gavage, site: lung, lesion: alveolar/bronchiolar adenoma, dosed 78 weeks, study length 78 weeks) was 217 mg/kg/day (inactive); the TD50 (mouse, strain B6C3F1, males, by gavage, site: any site (literature study), lesion: several types, types named in the paper, dosed 78 weeks, study length 78 weeks) was 83.5 mg/kg/day (inactive); the TD50 (mouse, strain B6C3F1, males, by gavage, site: lung, lesion: alveolar/bronchiolar adenoma, dosed 78 weeks, study length 78 weeks) is 65 mg/kg/day (inactive); the TD50 (mouse, strain B6C3F1, males, by gavage, site: lung, lesion: alveolar/bronchiolar carcinoma, dosed 78 weeks, study length 78 weeks) is 227 mg/kg/day (inactive); the TD50 (rat, strain F344/DuCrj, males, by gavage, site: liver, lesion: hepatocellular adenoma, dosed 104 weeks, study length 104 weeks) is 117 mg/kg/day (inactive); the TD50 (rat, strain F344/DuCrj, males, by gavage, site: liver, lesion: hepatocellular carcinoma, dosed 104 weeks, study length 104 weeks) was 237 mg/kg/day (inactive).
With `Cc1ccc(S(=O)(=O)NC(=O)NN2CCCCCC2)cc1`, the carcinogen call by setting is: (mouse, strain B6C3F1, females, in feed, site: any site (literature study), lesion: several types, types named in the paper, dosed 103 weeks, study length 104 weeks) “negative (inactive)”; (mouse, strain B6C3F1, males, in feed, site: any site (literature study), lesion: several types, types named in the paper, dosed 103 weeks, study length 104 weeks) “negative (inactive)”; (rat, strain Fischer 344, females, in feed, site: any site (literature study), lesion: several types, types named in the paper, dosed 103 weeks, study length 105 weeks) “negative (inactive)”; (rat, strain Fischer 344, males, in feed, site: any site (literature study), lesion: several types, types named in the paper, dosed 103 weeks, study length 104 weeks) “negative (inactive)”. In addition, the TD50 (mouse, strain B6C3F1, males, in feed, site: lung, lesion: alveolar/bronchiolar adenoma + alveolar/bronchiolar carcinoma, dosed 103 weeks, study length 104 weeks) amounted to 24600 mg/kg/day.
For `O=C(O)CNCC(=O)O`, under “rat, strain MRC, females, in drinking water, site: any site (literature study), lesion: several types, types named in the paper, dosed 84 weeks, study length 104 weeks”, the TD50 was 143 mg/kg/day (inactive). For the same compound, the carcinogen call (rat, strain MRC, males, in drinking water, site: any site (literature study), lesion: several types, types named in the paper, dosed 84 weeks, study length 104 weeks) is “negative (inactive)”.
As for `NC(=O)c1ccccc1C(N)=O`, the carcinogen call (mouse, strain B6C3F1, females, in feed, site: any site (literature study), lesion: several types, types named in the paper, dosed 103 weeks, study length 103 weeks) is “negative (inactive)” and the carcinogen call (rat, strain Fischer 344, males, in feed, site: any site (literature study), lesion: several types, types named in the paper, dosed 106 weeks, study length 106 weeks) is “negative (inactive)”. The TD50 (mouse, strain B6C3F1, males, in feed, site: any site (literature study), lesion: several types, types named in the paper, dosed 105 weeks, study length 105 weeks) was 1.1e+06 mg/kg/day (inactive); the TD50 (mouse, strain B6C3F1, males, in feed, site: lung, lesion: alveolar/bronchiolar adenoma + alveolar/bronchiolar carcinoma, dosed 105 weeks, study length 105 weeks) turned out to be 35800 mg/kg/day; the TD50 (rat, strain Fischer 344, females, in feed, site: any site (literature study), lesion: several types, types named in the paper, dosed 106 weeks, study length 106 weeks) was 722 mg/kg/day (inactive); the TD50 (rat, strain Fischer 344, females, in feed, site: liver, lesion: hepatocellular adenoma + hepatocellular carcinoma + neoplastic nodule, dosed 106 weeks, study length 106 weeks) came to 5390 mg/kg/day; the TD50 (rat, strain Fischer 344, males, in feed, site: liver, lesion: hepatocellular adenoma + hepatocellular carcinoma + neoplastic nodule, dosed 106 weeks, study length 106 weeks) is 16600 mg/kg/day.

A word on the TD50: it is the dose at which the toxic effect under study appears in half of the subjects.
